Measurements from patent US7407775B2, “Method for identifying Listeria monocytogenes and culture medium” (Biomerieux S.A., priority 2000, dated 2008).

Key:
Assay in all cases: Experiment 1: esterase substrates, same chromogenic marker, fatty acids of different chain lengths
Format in all cases: cell-based
Parameters in all cases: key: —: the symbol “-” corresponds to the absence of color or intensity; 0 corresponds to no activity; 0.1 corresponds to a trace of color; 0.5 corresponds to very pale coloration; 1 corresponds to clear but low-intensity coloration; 1.5 corresponds to a degree of coloration intermediate between scores 1 and 2; 2 corresponds to clear coloration of moderate intensity; 2.5 corresponds to a degree of coloration intermediate between scores 2 and 3; 3 corresponds to intense coloration; 3.5 corresponds to a degree of coloration intermediate between scores 3 and 4; 4 corresponds to very intense coloration
Conditions in all cases: 37° C., substrate 250 mg/l
Listeria innocua 171 = tested on: Listeria innocua 171
Description: (§1) A stock solution of each substrate at a concentration of 40 g/l was made up in a mixture of 40% Dimethylsulfoxide and 60% Polyoxyethylenesorbitan Monolaurate (Tween 20). An appropriate volume was added to three Columbia-type media while cooling to give a final substrate concentration of 250 mg/l. These dishes were divided into three areas and then each area was inoculated with a suspension (density=0.5 McFarland) of microorganisms taken from either the Applicant's own collection or the ATCC. The dishes were incubated for 48 hours at 37° C. The colonies which grew were examined by eye after 24 and 48 hours of incubation. Both the color and the intensity of the color of the colonies were recorded.
(§2) In Table 1 above, as in the following Tables, C represents the color of the colonies after incubation, I represents the intensity of the color, and the symbol “-” corresponds to the absence of color or intensity; finally, IT defines the incubation time. It should be noted that the intensity of the color is scored on an arbitrary scale but one which is consistent for all the biological specimens and media tested. This scale is valid for this experiment as well as all those that follow. It can be defined in the following way: • 0 corresponds to no activity, • 0.1 corresponds to a trace of color, • 0.5 corresponds to very pale coloration, • 1 corresponds to clear but low-intensity coloration, • 1.5 corresponds to a degree of coloration intermediate between scores 1 and 2, • 2 corresponds to clear coloration of moderate intensity, • 2.5 corresponds to a degree of coloration intermediate between scores 2 and 3, • 3 corresponds to intense coloration, • 3.5 corresponds to a degree of coloration intermediate between scores 3 and 4, • 4 corresponds to very intense coloration.

Listeria seeligeri 011 = tested on: Listeria seeligeri 011
Description: as §1, §2

Listeria innocua 166 = tested on: Listeria innocua 166
Description: as §1, §2

Listeria ivanovii 025 = tested on: Listeria ivanovii 025
Description: as §1, §2

Listeria ivanovii 018 = tested on: Listeria ivanovii 018
Description: as §1, §2

[1] = tested on: Listeria grayi ATCC 19120
Description: as §1, §2

Listeria welshimeri 078 = tested on: Listeria welshimeri 078
Description: as §1, §2

| Compound | C (color of the colonies) (Listeria innocua 171; IT 24 h) | I (intensity of the color) (Listeria innocua 171; IT 24 h) | C (color of the colonies) (Listeria innocua 171; IT 48 h) | I (intensity of the color) (Listeria innocua 171; IT 48 h) | C (color of the colonies) (Listeria seeligeri 011; IT 24 h) | I (intensity of the color) (Listeria seeligeri 011; IT 24 h) | C (color of the colonies) (Listeria seeligeri 011; IT 48 h) | I (intensity of the color) (Listeria seeligeri 011; IT 48 h) | C (color of the colonies) (Listeria innocua 166; IT 24 h) | I (intensity of the color) (Listeria innocua 166; IT 24 h) | C (color of the colonies) (Listeria innocua 166; IT 48 h) | I (intensity of the color) (Listeria innocua 166; IT 48 h) | C (color of the colonies) (Listeria ivanovii 025; IT 24 h) | I (intensity of the color) (Listeria ivanovii 025; IT 24 h) | C (color of the colonies) (Listeria ivanovii 025; IT 48 h) | I (intensity of the color) (Listeria ivanovii 025; IT 48 h) | C (color of the colonies) (Listeria ivanovii 018; IT 24 h) | I (intensity of the color) (Listeria ivanovii 018; IT 24 h) | C (color of the colonies) (Listeria ivanovii 018; IT 48 h) | I (intensity of the color) (Listeria ivanovii 018; IT 48 h) | also measured |
| --- | --- | --- | --- | --- | --- | --- | --- | --- | --- | --- | --- | --- | --- | --- | --- | --- | --- | --- | --- | --- | --- |
| CCCCCCCC(=O)Oc1c[nH]c2ccc(Br)cc12 [Blue-C8, 5-Bromo-3-indolyl octanoate] | — | — | gray | 0.3 | — | — | gray | 0.5 | gray | 0.3 | gray | 1 | — | — | — | — | — | — | — | — | C (color of the colonies) ([1]; IT 24 h): —; I (intensity of the color) ([1]; IT 24 h): —; C (color of the colonies) ([1]; IT 48 h): —; I (intensity of the color) ([1]; IT 48 h): —; C (color of the colonies) (Listeria welshimeri 078; IT 24 h): gray; I (intensity of the color) (Listeria welshimeri 078; IT 24 h): 0.5; C (color of the colonies) (Listeria welshimeri 078; IT 48 h): gray; I (intensity of the color) (Listeria welshimeri 078; IT 48 h): 1 |
| CCCCCCCCCC(=O)Oc1c[nH]c2ccc(Br)cc12 [Blue-C10, 5-Bromo-3-indolyl decanoate] | — | — | gray | 0.3 | — | — | gray | 0.5 | — | — | gray | 0.5 | — | — | — | — | — | — | — | — | C (color of the colonies) ([1]; IT 24 h): —; I (intensity of the color) ([1]; IT 24 h): —; C (color of the colonies) ([1]; IT 48 h): —; I (intensity of the color) ([1]; IT 48 h): —; C (color of the colonies) (Listeria welshimeri 078; IT 24 h): —; I (intensity of the color) (Listeria welshimeri 078; IT 24 h): —; C (color of the colonies) (Listeria welshimeri 078; IT 48 h): gray; I (intensity of the color) (Listeria welshimeri 078; IT 48 h): 0.5 |
| CCCCCCCCC(=O)Oc1c[nH]c2ccc(Br)cc12 [Blue-C9, 5-Bromo-3-indolyl nonanoate] | — | — | gray | 0.3 | — | — | gray | 0.5 | — | — | gray | 0.5 | — | — | — | — | — | — | — | — | C (color of the colonies) ([1]; IT 24 h): —; I (intensity of the color) ([1]; IT 24 h): —; C (color of the colonies) ([1]; IT 48 h): —; I (intensity of the color) ([1]; IT 48 h): —; C (color of the colonies) (Listeria welshimeri 078; IT 24 h): gray; I (intensity of the color) (Listeria welshimeri 078; IT 24 h): 0.5; C (color of the colonies) (Listeria welshimeri 078; IT 48 h): gray; I (intensity of the color) (Listeria welshimeri 078; IT 48 h): 1 |
